In ChEMBL document CHEMBL1201862, “PubChem BioAssay data set” (2004):
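Following 48 hours of exposure in 96-well plates, responses at five concentrations were used to interpolate endpoints linearly. GI50 marks 50% less growth.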 Activity calls are given as the source filed them. Cut-off read from the data, not from the text of the source: active = GI50 up to about 1.1 µM and inactive = higher.

Tests used:
Assay in all cases: NCI anticancer screen, dose series, 48 h
IGROV-1 = system: IGROV-1
TK-10 = system: TK-10
SF-539 = system: SF-539
DMS-273 = system: DMS-273
HOP-62 = system: HOP-62
786-0 = system: 786-0
NCI-H226 = system: NCI-H226
SN12C = system: SN12C
A549 = system: A549
M19-MEL = system: M19-MEL
DLD-1 = system: DLD-1
SK-MEL-28 = system: SK-MEL-28
KM12 = system: KM12
RXF 631 = system: RXF 631
HCT-15 = system: HCT-15
SK-MEL-2 = system: SK-MEL-2
UO-31 = system: UO-31
LXFL 529 = system: LXFL 529
UACC-257 = system: UACC-257
EKVX = system: EKVX
COLO 205 = system: COLO 205
SNB-78 = system: SNB-78
SF-268 = system: SF-268
M14 = system: M14
HOP-92 = system: HOP-92
HOP-18 = system: HOP-18
NCI-H460 = system: NCI-H460
ACHN = system: ACHN
OVCAR-5 = system: OVCAR-5
LOX IMVI = system: LOX IMVI
OVCAR-4 = system: OVCAR-4
SW-620 = system: SW-620
RPMI-8226 = system: RPMI-8226
KM-20L2 = system: KM-20L2
SF-295 = system: SF-295
U-251 = system: U-251
SNB-75 = system: SNB-75
OVCAR-3 = system: OVCAR-3
UACC-62 = system: UACC-62
HT-29 = system: HT-29
K562 = system: K562
OVCAR-8 = system: OVCAR-8
HCC 2998 = system: HCC 2998
Malme-3M = system: Malme-3M
XF498 = system: XF498
DMS-114 = system: DMS-114
SK-OV-3 = system: SK-OV-3
RXF 393 = system: RXF 393
HCT-116 = system: HCT-116
SNB-19 = system: SNB-19
NCI-H23 = system: NCI-H23
CAKI-1 = system: CAKI-1
A498 = system: A498
SK-MEL-5 = system: SK-MEL-5
CCRF-CEM = system: CCRF-CEM
SR = system: SR
MOLT-4 = system: MOLT-4
NCI-H522 = system: NCI-H522
HL-60 = system: HL-60

Measured: GI50

O=C1C(=O)N(C2C3CC4CC(C3)CC2C4)C(=O)C(=O)C1c1nc2ccccc2o1 (stereo not given)
43.6 µM: HCT-15
inactive: IGROV-1 42.3 µM | TK-10 > 100 µM | SF-539 90.6 µM | DMS-273 > 100 µM | HOP-62 > 100 µM | 786-0 26.3 µM | NCI-H226 > 100 µM | SN12C 98.4 µM | A549 > 100 µM | M19-MEL 55 µM | DLD-1 37.3 µM | SK-MEL-28 > 100 µM | KM12 > 100 µM | RXF 631 > 100 µM | SK-MEL-2 > 100 µM | UO-31 > 100 µM | LXFL 529 46.9 µM | UACC-257 26.1 µM | EKVX > 100 µM | COLO 205 51.6 µM | SNB-78 > 100 µM | SF-268 92.9 µM | M14 83 µM | HOP-92 61.1 µM | HOP-18 54.2 µM | NCI-H460 > 100 µM | ACHN > 100 µM | OVCAR-5 23.2 µM | LOX IMVI > 100 µM | OVCAR-4 > 100 µM | SW-620 55 µM | RPMI-8226 52.4 µM | KM-20L2 82 µM | SF-295 > 100 µM | U-251 23.1 µM | SNB-75 33.1 µM | OVCAR-3 25.1 µM | UACC-62 > 100 µM | HT-29 20.7 µM | K562 21.1 µM | OVCAR-8 > 100 µM | HCC 2998 57.5 µM | Malme-3M 36 µM | XF498 74 µM | DMS-114 19.4 µM | SK-OV-3 > 100 µM | RXF 393 70 µM | HCT-116 37 µM | SNB-19 > 100 µM | NCI-H23 41.6 µM | CAKI-1 > 100 µM

COc1cc2c(c(OC)c1OC)[C@@H]1CCCCC[C@@H]1CCC2=O
inactive: IGROV-1 > 100 µM | TK-10 > 100 µM | SF-539 > 100 µM | DMS-273 > 49.4 µM | HOP-62 > 100 µM | A498 > 100 µM | 786-0 > 71.3 µM | NCI-H226 > 100 µM | SN12C > 100 µM | A549 > 100 µM | M19-MEL > 100 µM | DLD-1 38.4 µM | SK-MEL-28 > 100 µM | KM12 99.1 µM | RXF 631 > 100 µM | SK-MEL-2 > 92.9 µM | UO-31 > 100 µM | LXFL 529 58.7 µM | SK-MEL-5 57.5 µM | CCRF-CEM 22.8 µM | UACC-257 59.7 µM | EKVX > 100 µM | COLO 205 > 48.6 µM | SR 33.3 µM | SF-268 76 µM | M14 > 100 µM | MOLT-4 24 µM | HOP-92 82.6 µM | HOP-18 > 100 µM | NCI-H460 > 58.6 µM | ACHN > 100 µM | OVCAR-5 > 100 µM | LOX IMVI 17.7 µM | OVCAR-4 > 91.8 µM | SW-620 > 100 µM | RPMI-8226 31.9 µM | KM-20L2 > 90.8 µM | SF-295 > 100 µM | U-251 > 92.5 µM | SNB-75 > 100 µM | OVCAR-3 97.3 µM | UACC-62 78.9 µM | HT-29 > 71.6 µM | K562 28.9 µM | OVCAR-8 > 100 µM | HCC 2998 > 100 µM | NCI-H522 > 66.7 µM | Malme-3M > 100 µM | XF498 > 94 µM | DMS-114 29.4 µM | SK-OV-3 > 100 µM | RXF 393 > 100 µM | HCT-116 57.1 µM | HL-60 22.9 µM | SNB-19 > 100 µM | NCI-H23 > 100 µM | CAKI-1 > 100 µM
> 75 µM: HCT-15
